Measurements: patent publication US11187705B2, “Method for labeling specifically living microorganisms comprising the use of modified monosaccharide compounds” (CENTRE NATIONAL DE LA RECHERCHE SCIENTIFIQUE (CNRS), priority 2015, dated 2021)

Columns and labels:
Type in all cases: cell-based
[1] = system: Stenotrophomonas maltophilia; settings: 10 mM, 24 hours; Clinical strain
[2] = system: Serratia marcescens (second entry); settings: 10 mM, 24 hours; second Serratia marcescens line (Table 1 order: Clinical strain)
[3] = system: Salmonella typhimurium 12023; settings: 10 mM, 24 hours; Laboratory strain
[4] = system: Enterococcus durans; settings: 10 mM, 24 hours; Laboratory strain
[5] = system: Streptococcus agalactiae; settings: 10 mM, 24 hours; Clinical strain
[6] = system: Providencia stuartii; settings: 10 mM, 24 hours; Clinical strain
[7] = system: Staphylococcus aureus aureus; settings: for labeling (fluorescence, metabolic incorporation of the chemical reporter): 10 mM, 24 hours, IP 53-156; for assimilation by the microorganism (in words): Staphylococcus aureus aureus
[8] = system: Klebsiella pneumoniae (first entry); settings: 10 mM, 24 hours; first Klebsiella pneumoniae line (Table 1 order: CIP 101114)
[9] = system: Neisseria meningitides; settings: 10 mM, 24 hours; CIP 107858
[10] = system: bacteria and Fungi as well as amoebas; experiment: Labeling of living microorganisms, overall statement on all tested strains; settings: broad range of bacteria and Fungi as well as amoebas
[11] = system: Klebsiella pneumoniae (second entry); settings: 10 mM, 24 hours; second Klebsiella pneumoniae line (Table 1 order: Clinical strain)
[12] = system: Staphylococcus saprophyticus; settings: 10 mM, 24 hours; Clinical strain
[13] = system: Enterococcus faecalis; settings: for labeling (fluorescence, metabolic incorporation of the chemical reporter): 10 mM, 24 hours, Laboratory strain; for assimilation by the microorganism (in words): Enterococcus faecalis
[14] = system: Pseudomonas fluorescens Paris; settings: 10 mM, 24 hours; Laboratory strain
[15] = system: Cronobacter sakazakii; settings: 10 mM, 24 hours; CIP 103183T
[16] = system: Listeria monocytogenes 1/2; settings: for labeling (fluorescence, metabolic incorporation of the chemical reporter): 10 mM, 24 hours, CIP 82.110pT; for assimilation by the microorganism (in words): Listeria monocytogenes
[17] = system: Vibrio cholerae; settings: 10 mM, 24 hours; CIP 104151
[18] = system: Bacillus cereus paris; settings: 10 mM, 24 hours; Laboratory strain
[19] = system: Candida albicans; settings: for labeling (fluorescence, metabolic incorporation of the chemical reporter): 10 mM, 24 hours, Laboratory strain; for assimilation by the microorganism (in words): Candida albicans
[20] = system: Acinetobacter baumannii; settings: 10 mM, 24 hours; ATCC 17978
[21] = system: Proteus mirabills; settings: 10 mM, 24 hours; Clinical strain
[22] = system: Serratia marcescens (first entry); settings: 10 mM, 24 hours; first Serratia marcescens line (Table 1 order: CIP 102446)
[23] = system: Acanthamoebae castellanii; settings: for labeling (fluorescence, metabolic incorporation of the chemical reporter): 10 mM, 24 hours, ATCC 30234; for assimilation by the microorganism (in words): Acanthamoebae castellanii
[24] = system: Bacillus subtilis; settings: for labeling (fluorescence, metabolic incorporation of the chemical reporter): 10 mM, 24 hours, Laboratory strain; for assimilation by the microorganism (in words): Bacillus subtilis
[25] = system: Staphylococcus epidermis; settings: for labeling (fluorescence, metabolic incorporation of the chemical reporter): 10 mM, 24 hours, Laboratory strain
[26] = system: Fusarium; settings: for labeling (fluorescence, metabolic incorporation of the chemical reporter): 10 mM, 24 hours, CNCM 1149-76; for assimilation by the microorganism (in words): Fusarium
[27] = system: Geotrichum candidum; settings: for labeling (fluorescence, metabolic incorporation of the chemical reporter): 10 mM, 24 hours, CNCM 1447-83; for assimilation by the microorganism (in words): Geotrichum candidum
[28] = system: Aspergillus niger; settings: for labeling (fluorescence, metabolic incorporation of the chemical reporter): 10 mM, 24 hours, Laboratory strain; for assimilation by the microorganism (in words): Aspergillus niger
[29] = system: Bacillus cereus (second entry); settings: 10 mM, 24 hours; second Bacillus cereus line (Table 1 order: CIP 66.24T)
[30] = system: Neisseria gonorrhoeae; settings: for labeling (fluorescence, metabolic incorporation of the chemical reporter): 10 mM, 24 hours, CIP 79.18T; for assimilation by the microorganism (in words): Neisseria gonorrhoeae
[31] = system: Escherichia coli K12; settings: 10 mM, 24 hours; MG1655
[32] = system: Staphylococcus aureus; settings: for labeling (fluorescence, metabolic incorporation of the chemical reporter): 10 mM, 24 hours, Clinical strain; for assimilation by the microorganism (in words): Staphylococcus aureus
[33] = system: Escherichia coli O86; settings: 10 mM, 24 hours; Laboratory strain
[34] = system: Legionella pneumophila sg1 Paris; settings: 10 mM, 24 hours; CIP 33152
[35] = system: Legionella pneumophila sg6; settings: 10 mM, 24 hours; LG 0846 3022
[36] = system: Micrococcus luteus; settings: for labeling (fluorescence, metabolic incorporation of the chemical reporter): 10 mM, 24 hours, Laboratory strain; for assimilation by the microorganism (in words): Micrococcus luteus
[37] = system: Bacillus cereus (first entry); settings: 10 mM, 24 hours; first Bacillus cereus line (Table 1 order: Laboratory strain)

## [N-]=[N+]=NC[C@H]1OC(O)[C@@H](O)[C@@H]1O (stereo partly drawn) [Ara-N3, 5-Azido-5-deoxy-D-arabinofuranose]
[1]
  labeling (fluorescence, metabolic incorporation of the chemical reporter): +
[2]
  labeling (fluorescence, metabolic incorporation of the chemical reporter): +
[3]
  labeling (fluorescence, metabolic incorporation of the chemical reporter): +
[4]
  labeling (fluorescence, metabolic incorporation of the chemical reporter): +
[5]
  labeling (fluorescence, metabolic incorporation of the chemical reporter): +
[6]
  labeling (fluorescence, metabolic incorporation of the chemical reporter): +
[7]
  labeling (fluorescence, metabolic incorporation of the chemical reporter): +
  assimilation by the microorganism (in words): assimilated
[8]
  labeling (fluorescence, metabolic incorporation of the chemical reporter): +
[9]
  labeling (fluorescence, metabolic incorporation of the chemical reporter): +
[10]
  labeling of all tested microorganisms (in words): all tested microorganisms were labeled
[11]
  labeling (fluorescence, metabolic incorporation of the chemical reporter): +
[12]
  labeling (fluorescence, metabolic incorporation of the chemical reporter): +
[13]
  labeling (fluorescence, metabolic incorporation of the chemical reporter): +
  assimilation by the microorganism (in words): assimilated
[14]
  labeling (fluorescence, metabolic incorporation of the chemical reporter): +
[15]
  labeling (fluorescence, metabolic incorporation of the chemical reporter): +
[16]
  labeling (fluorescence, metabolic incorporation of the chemical reporter): +
  assimilation by the microorganism (in words): assimilated
[17]
  labeling (fluorescence, metabolic incorporation of the chemical reporter): +
[18]
  labeling (fluorescence, metabolic incorporation of the chemical reporter): +
[19]
  labeling (fluorescence, metabolic incorporation of the chemical reporter): +
  assimilation by the microorganism (in words): assimilated
[20]
  labeling (fluorescence, metabolic incorporation of the chemical reporter): +
[21]
  labeling (fluorescence, metabolic incorporation of the chemical reporter): +
[22]
  labeling (fluorescence, metabolic incorporation of the chemical reporter): +
[23]
  labeling (fluorescence, metabolic incorporation of the chemical reporter): +
  assimilation by the microorganism (in words): assimilated
[24]
  labeling (fluorescence, metabolic incorporation of the chemical reporter): +
  assimilation by the microorganism (in words): assimilated
[25]
  labeling (fluorescence, metabolic incorporation of the chemical reporter): +
[26]
  labeling (fluorescence, metabolic incorporation of the chemical reporter): +
  assimilation by the microorganism (in words): assimilated
[27]
  labeling (fluorescence, metabolic incorporation of the chemical reporter): +
  assimilation by the microorganism (in words): assimilated
[28]
  labeling (fluorescence, metabolic incorporation of the chemical reporter): +
  assimilation by the microorganism (in words): assimilated
[29]
  labeling (fluorescence, metabolic incorporation of the chemical reporter): +
[30]
  labeling (fluorescence, metabolic incorporation of the chemical reporter): +
  assimilation by the microorganism (in words): assimilated
[31]
  labeling (fluorescence, metabolic incorporation of the chemical reporter): +
[32]
  labeling (fluorescence, metabolic incorporation of the chemical reporter): +
  assimilation by the microorganism (in words): assimilated
[33]
  labeling (fluorescence, metabolic incorporation of the chemical reporter): +
[34]
  labeling (fluorescence, metabolic incorporation of the chemical reporter): +
[35]
  labeling (fluorescence, metabolic incorporation of the chemical reporter): +
[36]
  labeling (fluorescence, metabolic incorporation of the chemical reporter): +
  assimilation by the microorganism (in words): assimilated
[37]
  labeling (fluorescence, metabolic incorporation of the chemical reporter): +

## [N-]=[N+]=NC[C@@H](O)C1OC(O)(C(=O)O)CC(O)[C@H]1O (some centres unmarked) [Kdo-N3, reference compound]
[1]
  labeling (fluorescence, metabolic incorporation of the chemical reporter): +
[2]
  labeling (fluorescence, metabolic incorporation of the chemical reporter): +
[3]
  labeling (fluorescence, metabolic incorporation of the chemical reporter): +
[6]
  labeling (fluorescence, metabolic incorporation of the chemical reporter): +
[7]
  labeling (fluorescence, metabolic incorporation of the chemical reporter): −
  assimilation by the microorganism (in words): did not assimilate
[8]
  labeling (fluorescence, metabolic incorporation of the chemical reporter): +
[9]
  labeling (fluorescence, metabolic incorporation of the chemical reporter): +
[11]
  labeling (fluorescence, metabolic incorporation of the chemical reporter): +
[13]
  labeling (fluorescence, metabolic incorporation of the chemical reporter): −
  assimilation by the microorganism (in words): did not assimilate
[14]
  labeling (fluorescence, metabolic incorporation of the chemical reporter): +
[15]
  labeling (fluorescence, metabolic incorporation of the chemical reporter): +
[16]
  labeling (fluorescence, metabolic incorporation of the chemical reporter): −
  assimilation by the microorganism (in words): did not assimilate
[17]
  labeling (fluorescence, metabolic incorporation of the chemical reporter): +
[19]
  labeling (fluorescence, metabolic incorporation of the chemical reporter): −
  assimilation by the microorganism (in words): did not assimilate
[20]
  labeling (fluorescence, metabolic incorporation of the chemical reporter): +
[21]
  labeling (fluorescence, metabolic incorporation of the chemical reporter): +
[22]
  labeling (fluorescence, metabolic incorporation of the chemical reporter): +
[23]
  labeling (fluorescence, metabolic incorporation of the chemical reporter): −
  assimilation by the microorganism (in words): did not assimilate
[24]
  labeling (fluorescence, metabolic incorporation of the chemical reporter): −
  assimilation by the microorganism (in words): did not assimilate
[25]
  labeling (fluorescence, metabolic incorporation of the chemical reporter): −
[25]; Staphylococcus epidermis
  assimilation by the microorganism (in words): did not assimilate
[26]
  labeling (fluorescence, metabolic incorporation of the chemical reporter): −
  assimilation by the microorganism (in words): did not assimilate
[27]
  labeling (fluorescence, metabolic incorporation of the chemical reporter): −
  assimilation by the microorganism (in words): did not assimilate
[28]
  labeling (fluorescence, metabolic incorporation of the chemical reporter): −
  assimilation by the microorganism (in words): did not assimilate
[30]
  labeling (fluorescence, metabolic incorporation of the chemical reporter): −
  assimilation by the microorganism (in words): did not assimilate
[31]
  labeling (fluorescence, metabolic incorporation of the chemical reporter): +
[32]
  labeling (fluorescence, metabolic incorporation of the chemical reporter): −
  assimilation by the microorganism (in words): did not assimilate
[33]
  labeling (fluorescence, metabolic incorporation of the chemical reporter): +
[34]
  labeling (fluorescence, metabolic incorporation of the chemical reporter): +
[35]
  labeling (fluorescence, metabolic incorporation of the chemical reporter): +
[36]
  labeling (fluorescence, metabolic incorporation of the chemical reporter): −
  assimilation by the microorganism (in words): did not assimilate
